The values that follow come from patent publication US11179469B2, “Transdermal absorption preparation” (Nitto Denko Corporation, priority 2017, dated 2021).

A short description of the data set: Octanol/water partition coefficient of the drug (log P1). Type of data set: physicochemical. The conditions noted are these: base 10 logarithm. The source says:
The octanol/water partition coefficient is the ratio of the distribution of a certain chemical substance respectively to n-octanol and water (ratio of the concentration in n-octanol phase and aqueous phase). It is used as an index showing hydrophobicity and transferability of the chemical substance, and can be measured by the flask shaking method prescribed in the Economic Development Cooperation Organization (OECD) Test Guideline 107 and the like or calculated using the calculation software (“Cache Workspace (registered trade mark)” manufactured by Fujitsu Limited) etc. and inputting the structural formula of the compound. The octanol/water partition coefficient of the polymer is calculated using the molecule structural formula in a monomer unit.

For `CC(C)(C)NCC(O)c1ccccc1Cl` (centres unmarked) [Tulobuterol], the “logP1 (octanol/water partition coefficient of the drug)” value was determined as 2.55. Regarding `CC(C)C[C@H](CN)CC(=O)O` [pregabalin], the “logP1 (octanol/water partition coefficient of the drug)” value was found to be 0.89.
